Test results reported in patent publication US8952024B2, “Herbicidal pyrimidone derivatives” (E I du Pont de Nemours and Company, priority 2009, dated 2015).
Read-outs that look alike come from different tables or passages of the source.

What was measured:
Assay type in all cases: in vivo
[1] = test system: chickweed (Stellaria media); assay: Test B postemergence plant response
In short: (§1)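 Plants grown in peat/vermiculite medium were sprayed postemergence at 2–18 cm height (1- to 4-leaf stage). After 13–15 days in the greenhouse, response was rated visually against untreated controls on a 0–100 scale (0 no effect, 100 complete control).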

[2] = test system: windgrass (Apera spica-venti); assay: Test B postemergence plant response
In short: as §1

[3] = test system: canarygrass (Phalaris minor); assay: Test B postemergence plant response
In short: as §1

[4] = test system: winter barley (Hordeum vulgare); assay: Test B postemergence plant response
In short: as §1

[5] = test system: lambsquarters (Chenopodium album); assay: Test B pre-/postemergence plant response; conditions: for pest or weed control at 31 g/ha: 31 g ai/ha; for pest or weed control at 125 g/ha: 125 g ai/ha
In short: (§2)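 Each species received compound formulated in non-phytotoxic solvent with surfactant, either at planting into a loam and sand blend or as a foliar spray once plants reached 2 to 18 cm in peat-based medium. Plants stayed in the greenhouse 13 to 15 days before visual evaluation against controls, scored 0 (no effect) to 100 (complete control).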

[6] = test system: galium (catchweed bedstraw, Galium aparine); assay: Test B pre-/postemergence plant response; conditions: Preemergence
In short: as §2

[7] = test system: nightshade (eastern black nightshade, Solanum ptycanthum); assay: Test B pre-/postemergence plant response; conditions: Preemergence
In short: as §2

[8] = test system: ragweed (common ragweed, Ambrosia elatior); assay: Test B pre-/postemergence plant response; conditions: for pest or weed control at 125 g/ha: 125 g ai/ha
In short: as §2

[9] = test system: sunflower (common oilseed sunflower, Helianthus annuus); assay: Test B pre-/postemergence plant response; conditions: Preemergence
In short: as §2

[10] = test system: Italian ryegrass (Lolium multiflorum); assay: Test B pre-/postemergence plant response; conditions: for pest or weed control at 125 g/ha: 125 g ai/ha
In short: as §2

[11] = test system: wheat (Triticum aestivum); assay: Test B pre-/postemergence plant response; conditions: for plant injury at 125 g/ha: 125 g ai/ha
In short: as §2

[12] = test system: pigweed (Amaranthus retroflexus); assay: Test B pre-/postemergence plant response; conditions: for pest or weed control at 31 g/ha: 31 g ai/ha; for pest or weed control at 125 g/ha: 125 g ai/ha
In short: as §2

[13] = test system: bermudagrass (Cynodon dactylon); assay: Test B pre-/postemergence plant response; conditions: for pest or weed control at 31 g/ha: 31 g ai/ha; for pest or weed control at 125 g/ha: 125 g ai/ha
In short: as §2

[14] = 62 g ai/ha, postemergence, 0 is no effect, 100 is complete control, 13 to 15 days
[15] = Preemergence, 250 g ai/ha, 0 to 100 scale
[16] = 31 g ai/ha, scale 0 to 100 (0 no effect, 100 complete control)
[17] = 62 g ai/ha, scale 0 to 100, 0 no effect, 100 complete control
[18] = 125 g ai/ha, scale 0 to 100, 0 no effect, 100 complete control

Structure (SMILES): O=C1CCCC(O)=C1C(=O)c1cnc(-c2cccnc2)n(-c2ccccc2)c1=O [Compound 113, 5-[(2-hydroxy-6-oxo-1-cyclohexen-1-yl)carbonyl]-3-phenyl-2-(3-pyridinyl)-4(3H)-pyrimidone]
- Chickweed plant response rating (0 to 100 scale) [1, 14]: 98
- pest or weed control at 31 g/ha ([1]; Stellaria media, post-emergence, 360 h, 31 g ai/ha, postemergence, scale 0 to 100, 0 is no effect, 100 is complete control, read-out: Plant response rating, Chickweed): 98%
- pest or weed control at 125 g/ha ([1]; Stellaria media, post-emergence, 360 h, Postemergence, 125 g ai/ha, scale 0 to 100 (0 no effect, 100 complete control), read-out: Plant response rating, Chickweed): 100%
- pest or weed control at 250 g/ha ([1]; Stellaria media, post-emergence, 360 h, Postemergence, 250 g ai/ha, scale 0 to 100 (0 no effect, 100 complete control), read-out: Plant response rating, Chickweed): 100%
- Windgrass plant response rating (0 to 100 scale) [2, 14]: 30
- pest or weed control at 125 g/ha ([2]; Apera spica-venti, post-emergence, 360 h, Postemergence, 125 g ai/ha, scale 0 to 100 (0 no effect, 100 complete control), read-out: Plant response rating, Windgrass): 35%
- Canarygrass plant response rating (0 to 100 scale) [3, 14]: 90
- pest or weed control at 31 g/ha ([3]; Phalaris minor, post-emergence, 360 h, 31 g ai/ha, postemergence, scale 0 to 100, 0 is no effect, 100 is complete control, read-out: Plant response rating, Canarygrass): 65%
- pest or weed control at 250 g/ha ([3]; Phalaris minor, post-emergence, 360 h, Postemergence, 250 g ai/ha, scale 0 to 100 (0 no effect, 100 complete control), read-out: Plant response rating, Canarygrass): 90%
- Barley plant response rating (0 to 100 scale) [4, 14]: 5
- plant injury at 31 g/ha ([4]; Hordeum vulgare, post-emergence, 31 g ai/ha, postemergence, scale 0 to 100, 0 is no effect, 100 is complete control, read-out: Plant response rating, Barley): 0%
- plant injury at 125 g/ha ([4]; Hordeum vulgare, post-emergence, Postemergence, 125 g ai/ha, scale 0 to 100 (0 no effect, 100 complete control), read-out: Plant response rating, Barley): 5%
- plant injury at 250 g/ha ([4]; Hordeum vulgare, post-emergence, Postemergence, 250 g ai/ha, scale 0 to 100 (0 no effect, 100 complete control), read-out: Plant response rating, Barley): 20%
- Lambsquarters plant response rating (0 to 100 scale) [5, 14]: 98
- pest or weed control at 31 g/ha ([5]; Chenopodium album, post-emergence, postemergence, scale 0 to 100, 0 is no effect, 100 is complete control, read-out: Plant response rating, Lambsquarters): 95%
- pest or weed control at 125 g/ha ([5]; Chenopodium album, post-emergence, Postemergence, scale 0 to 100 (0 no effect, 100 complete control), read-out: Plant response rating, Lambsquarters): 98%
- pest or weed control at 250 g/ha ([5]; Chenopodium album, post-emergence, Postemergence, 250 g ai/ha, scale 0 to 100 (0 no effect, 100 complete control), read-out: Plant response rating, Lambsquarters): 98%
- pest or weed control at 31 g/ha ([5]; Chenopodium album, pre-emergence, Preemergence, scale 0 to 100 (0 no effect, 100 complete control), read-out: Plant response rating, Lambsquarters): 98%
- pest or weed control at 62 g/ha ([5]; Chenopodium album, pre-emergence, Preemergence, 62 g ai/ha, scale 0 to 100, 0 no effect, 100 complete control, read-out: Plant response rating, Lambsquarters): 100%
- pest or weed control at 125 g/ha ([5]; Chenopodium album, pre-emergence, Preemergence, scale 0 to 100, 0 no effect, 100 complete control, read-out: Plant response rating, Lambsquarters): 100%
- Lambsquarters plant response rating [5, 15]: 100
- Plant response rating, Galium [6, 16]: 50
- Plant response rating, Galium [6, 17]: 70
- Plant response rating, Galium [6, 18]: 85
- Galium plant response rating ([6]; 250 g ai/ha, 0 to 100 scale): 95
- Plant response rating, Nightshade [7, 16]: 98
- Plant response rating, Nightshade [7, 17]: 98
- Plant response rating, Nightshade [7, 18]: 100
- Nightshade plant response rating ([7]; 250 g ai/ha, 0 to 100 scale): 100
- Ragweed plant response rating (0 to 100 scale) [8, 14]: 95
- pest or weed control at 125 g/ha ([8]; Ambrosia artemisiifolia, post-emergence, 360 h, Postemergence, scale 0 to 100 (0 no effect, 100 complete control), read-out: Plant response rating, Ragweed): 98%
- pest or weed control at 250 g/ha ([8]; Ambrosia artemisiifolia, post-emergence, 360 h, Postemergence, 250 g ai/ha, scale 0 to 100 (0 no effect, 100 complete control), read-out: Plant response rating, Ragweed): 98%
- pest or weed control at 31 g/ha ([8]; Ambrosia artemisiifolia, pre-emergence, 360 h, Preemergence, 31 g ai/ha, scale 0 to 100 (0 no effect, 100 complete control), read-out: Plant response rating, Ragweed): 55%
- pest or weed control at 62 g/ha ([8]; Ambrosia artemisiifolia, pre-emergence, 360 h, Preemergence, 62 g ai/ha, scale 0 to 100 (0 no effect, 100 complete control), read-out: Plant response rating, Ragweed): 90%
- pest or weed control at 125 g/ha ([8]; Ambrosia artemisiifolia, pre-emergence, 360 h, Preemergence, scale 0 to 100, 0 no effect, 100 complete control, read-out: Plant response rating, Ragweed): 95%
- Ragweed plant response rating [8, 15]: 98
- Plant response rating, Sunflower [9, 16]: 75
- Plant response rating, Sunflower [9, 17]: 80
- Plant response rating, Sunflower [9, 18]: 90
- Sunflower plant response rating ([9]; 250 g ai/ha, 0 to 100 scale): 95
- Ryegrass, Italian plant response rating (0 to 100 scale) [10, 14]: 45
- pest or weed control at 125 g/ha ([10]; Lolium multiflorum, post-emergence, Postemergence, scale 0 to 100 (0 no effect, 100 complete control), read-out: Plant response rating, Ryegrass, Italian): 50%
- pest or weed control at 250 g/ha ([10]; Lolium multiflorum, post-emergence, Postemergence, 250 g ai/ha, scale 0 to 100 (0 no effect, 100 complete control), read-out: Plant response rating, Ryegrass, Italian): 85%
- pest or weed control at 31 g/ha ([10]; Lolium multiflorum, pre-emergence, Preemergence, 31 g ai/ha, scale 0 to 100 (0 no effect, 100 complete control), read-out: Plant response rating, Ryegrass, Italian): 0%
- pest or weed control at 62 g/ha ([10]; Lolium multiflorum, pre-emergence, Preemergence, 62 g ai/ha, scale 0 to 100 (0 no effect, 100 complete control), read-out: Plant response rating, Ryegrass, Italian): 5%
- pest or weed control at 125 g/ha ([10]; Lolium multiflorum, pre-emergence, Preemergence, scale 0 to 100, 0 no effect, 100 complete control, read-out: Plant response rating, Ryegrass, Italian): 5%
- Ryegrass, Italian plant response rating [10, 15]: 40
- Wheat plant response rating (0 to 100 scale) [11, 14]: 15
- Wheat plant response rating [11, 15]: 10
- plant injury at 125 g/ha ([11]; Triticum aestivum, post-emergence, Postemergence, scale 0 to 100 (0 no effect, 100 complete control), read-out: Plant response rating, Wheat): 40%
- plant injury at 31 g/ha ([11]; Triticum aestivum, pre-emergence, Preemergence, 31 g ai/ha, scale 0 to 100 (0 no effect, 100 complete control), read-out: Plant response rating, Wheat): 0%
- plant injury at 62 g/ha ([11]; Triticum aestivum, pre-emergence, Preemergence, 62 g ai/ha, scale 0 to 100 (0 no effect, 100 complete control), read-out: Plant response rating, Wheat): 0%
- plant injury at 125 g/ha ([11]; Triticum aestivum, pre-emergence, Preemergence, scale 0 to 100, 0 no effect, 100 complete control, read-out: Plant response rating, Wheat): 10%
- Pigweed plant response rating (0 to 100 scale) [12, 14]: 100
- pest or weed control at 31 g/ha ([12]; Amaranthus retroflexus, post-emergence, postemergence, scale 0 to 100, 0 is no effect, 100 is complete control, read-out: Plant response rating, Pigweed): 95%
- pest or weed control at 125 g/ha ([12]; Amaranthus retroflexus, post-emergence, Postemergence, scale 0 to 100 (0 no effect, 100 complete control), read-out: Plant response rating, Pigweed): 100%
- pest or weed control at 250 g/ha ([12]; Amaranthus retroflexus, post-emergence, Postemergence, 250 g ai/ha, scale 0 to 100 (0 no effect, 100 complete control), read-out: Plant response rating, Pigweed): 100%
- pest or weed control at 31 g/ha ([12]; Amaranthus retroflexus, pre-emergence, Preemergence, scale 0 to 100 (0 no effect, 100 complete control), read-out: Plant response rating, Pigweed): 98%
- pest or weed control at 62 g/ha ([12]; Amaranthus retroflexus, pre-emergence, Preemergence, 62 g ai/ha, scale 0 to 100 (0 no effect, 100 complete control), read-out: Plant response rating, Pigweed): 98%
- pest or weed control at 125 g/ha ([12]; Amaranthus retroflexus, pre-emergence, Preemergence, scale 0 to 100, 0 no effect, 100 complete control, read-out: Plant response rating, Pigweed): 100%
- Pigweed plant response rating [12, 15]: 100
- Bermudagrass plant response rating (0 to 100 scale) [13, 14]: 90
- pest or weed control at 31 g/ha ([13]; Cynodon dactylon, post-emergence, postemergence, scale 0 to 100, 0 is no effect, 100 is complete control, read-out: Plant response rating, Bermudagrass): 80%
- pest or weed control at 125 g/ha ([13]; Cynodon dactylon, post-emergence, Postemergence, scale 0 to 100 (0 no effect, 100 complete control), read-out: Plant response rating, Bermudagrass): 95%
- pest or weed control at 250 g/ha ([13]; Cynodon dactylon, post-emergence, Postemergence, 250 g ai/ha, scale 0 to 100 (0 no effect, 100 complete control), read-out: Plant response rating, Bermudagrass): 95%
- pest or weed control at 31 g/ha ([13]; Cynodon dactylon, pre-emergence, Preemergence, scale 0 to 100 (0 no effect, 100 complete control), read-out: Plant response rating, Bermudagrass): 95%
- pest or weed control at 62 g/ha ([13]; Cynodon dactylon, pre-emergence, Preemergence, 62 g ai/ha, scale 0 to 100, 0 no effect, 100 complete control, read-out: Plant response rating, Bermudagrass): 95%
- pest or weed control at 125 g/ha ([13]; Cynodon dactylon, pre-emergence, Preemergence, scale 0 to 100, 0 no effect, 100 complete control, read-out: Plant response rating, Bermudagrass): 100%
- Bermudagrass plant response rating ([13]; Preemergence, 250 g ai/ha, 0 to 100 scale, 0 no effect, 100 complete control): 100
